The test system of test [1] is human mammary carcinoma which expresses EGF receptor tyrosine kinase. The note with it: athymic nude mice; Toi et al., 1990; cited from earlier work.
Test [2] addresses T1, EGF receptor tyrosine kinase (Homo sapiens, UniProt P00533).
T1 construct: Receptor tyrosine kinase was obtained in partially purified form from A431 cells; endogenous in cells; host or cells: A431 cells (human vulval carcinoma); Triton X-100-solubilised membrane fraction
Kind of test: In vitro inhibition of the enzyme EGF receptor tyrosine kinase (test (a)). The format is biochemical. The conditions noted are these: approximate value, enzyme partially purified from A431 cells, with EGF, 25° C., 10 minutes. On the procedure: (a) An in vitro assay which determines the ability of a test compound to inhibit the enzyme EGF receptor tyrosine kinase. Receptor tyrosine kinase was obtained in partially purified form from A431 cells (derived from human vulval carcinoma) by the procedures described below which are related to those described by Carpenter et al., J. Biol. Chem., 1979, 254,4884, Cohen et al., J. Biol. Chem, 1982, 257, 1523 and by Braun et al., J. Biol. Chem., 1984, 259, 2051.
A-431 cells were grown to confluence using Dulbecco's modified Eagle's medium (DMEM) containing 5% fetal calf serum (FCS). The obtained cells were homogenised in a hypotonic borate/EDTA buffer at pH 10.1. The homogenate was centrifuged at 400 g for 10 minutes at 0-4° C. The supernatant was centrifuged at 25,000 g for 30 minutes at 0-4° C. […]
The test compound/EGF mixture solution (5 μl) was added to the test enzyme solution (10 μl) and the mixture was incubated at 0-4° C. for 30 minutes. […] Radioactivity present in the filter paper was measured using a liquid scintillation counter (Sequence A). […]
Receptor tyrosine kinase inhibition was calculated as follows: [formula]
The extent of inhibition was then determined at a range of concentrations of test compound to give an IC50 value.

The subject of test [3] is human naso-pharyngeal cancer cell line KB. Description: In vitro inhibition of the EGF-stimulated growth of the human naso-pharyngeal cancer cell line KB (test (b)). The note with it: 72 h, approximate value, KB cells, EGF (10 ng/ml), 3 days, MTT. The class given is cell-based. On the procedure:
(b) An in vitro assay which determines the ability of a test compound to inhibit the EGF-stimulated growth of the human naso-pharyngeal cancer cell line KB.
KB cells were seeded into wells at a density of 1×10^4 -1.5×10^4 cells per well and grown for 24 hours in DMEM supplemented with 5% FCS (charcoal-stripped). Cell growth was determined after incubation for 3 days by the extent of metabolism of MTT tetrazolium dye to furnish a bluish color. Cell growth was then determined in the presence of EGF (10 ng/ml) or in the presence of EGF (10 ng/ml) and a test compound at a range of concentrations. An IC50 value could then be calculated.

Test [4] deals with xenografts of the human vulval epidermoid carcinoma cell line A431. Kind of test: In vivo inhibition of growth of A431 xenografts in athymic nude mice (test (c)). On the set-up: species or system athymic nude mice (strain ONU:Alpk); human tumour. The note with it: approximate, daily dose of 50 mg/kg, usually orally, once daily, usually 13 days, relative to untreated controls. The procedure: (c) An in-vivo assay in a group of athymic nude mice (strain ONU:Alpk) which determines the ability of a test compound (usually administered orally as a ball-milled suspension in 0.5% polysorbate) to inhibit the growth of xenografts of the human vulval epidermoid carcinoma cell line A431. A431 cells were maintained in culture in DMEM supplemented with 5% FCS and 2 mM glutamine. Freshly cultured cells were harvested by trvpsinization and injected subcutaneously (10 million cells/0.1 ml/mouse) into both flanks of a number of donor nude mice. When sufficient tumour material was available (after approximately 9 to 14 days), fragments of tumour tissue were transplanted in the flanks of recipient nude mice (test day 0). Generally, on the seventh day after transplantation (test day 7) groups of 7 to 10 mice with similar-sized tumours were selected and dosing of the test compound was commenced. Once daily dosing of test compound was continued for a total of 13 days (test days 7 to 19 inclusive). In some studies the dosing of the test compound was continued beyond test day 19, for example to test day 26. In each case. on the following test day the animals were killed and the final tumour volume was calculated from measurements of the length and width of the tumours. Results were calculated as a percentage inhibition of tumour volume relative to untreated controls.

T1 sequence (P00533 25-1210): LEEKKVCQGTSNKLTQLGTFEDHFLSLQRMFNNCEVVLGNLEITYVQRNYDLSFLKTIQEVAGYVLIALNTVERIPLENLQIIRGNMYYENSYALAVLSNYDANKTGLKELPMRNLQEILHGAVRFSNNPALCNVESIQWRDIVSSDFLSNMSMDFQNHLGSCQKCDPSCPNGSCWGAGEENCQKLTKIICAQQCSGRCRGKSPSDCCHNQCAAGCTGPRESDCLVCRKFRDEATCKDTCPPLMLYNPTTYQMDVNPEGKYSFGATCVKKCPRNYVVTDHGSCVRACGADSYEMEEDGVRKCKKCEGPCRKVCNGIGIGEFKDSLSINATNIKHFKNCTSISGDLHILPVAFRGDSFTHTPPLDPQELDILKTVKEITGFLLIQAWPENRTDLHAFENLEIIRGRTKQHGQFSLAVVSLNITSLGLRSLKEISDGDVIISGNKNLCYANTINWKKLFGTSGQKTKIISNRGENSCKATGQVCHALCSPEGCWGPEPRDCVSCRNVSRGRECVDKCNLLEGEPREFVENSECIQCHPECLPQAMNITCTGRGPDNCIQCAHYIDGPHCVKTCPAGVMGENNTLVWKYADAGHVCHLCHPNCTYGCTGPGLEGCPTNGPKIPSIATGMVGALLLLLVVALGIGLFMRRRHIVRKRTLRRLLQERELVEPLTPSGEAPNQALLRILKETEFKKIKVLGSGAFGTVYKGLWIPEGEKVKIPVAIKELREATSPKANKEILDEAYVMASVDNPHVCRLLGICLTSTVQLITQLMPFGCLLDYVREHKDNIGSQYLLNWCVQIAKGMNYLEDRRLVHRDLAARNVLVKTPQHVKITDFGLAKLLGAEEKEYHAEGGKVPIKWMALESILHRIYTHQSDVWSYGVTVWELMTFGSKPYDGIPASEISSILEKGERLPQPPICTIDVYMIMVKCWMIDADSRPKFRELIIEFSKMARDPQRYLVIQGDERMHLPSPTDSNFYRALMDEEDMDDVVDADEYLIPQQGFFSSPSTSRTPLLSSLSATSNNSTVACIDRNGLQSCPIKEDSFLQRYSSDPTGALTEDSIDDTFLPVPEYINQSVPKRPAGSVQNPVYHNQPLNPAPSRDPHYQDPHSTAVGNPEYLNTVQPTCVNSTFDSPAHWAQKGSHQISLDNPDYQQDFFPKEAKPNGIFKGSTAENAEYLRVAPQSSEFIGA

Turning to `O=CN/C=C/c1cc(O)ccc1O` [erbstatin], the “growth of transplanted human mammary carcinoma which expresses EGF receptor tyrosine kinase” value in test [1] is recorded as “specifically attenuates the growth”.

What is called IC50 is the concentration at which inhibition is half-maximal. A lower IC50 goes with greater potency in that assay. With `COCCNc1cc2c(Nc3cccc(C)c3)ncnc2cc1OC` [compound of the invention, 6-(2-methoxyethylamino)-7-methoxy-4-(3'-methylanilino)quinazoline], the IC50 in test [2] is around 0.01 µM; in test [3], around 0.2 µM. Besides, the “inhibition of tumour volume” value in test [4] was around 50%.

Source of the values: patent US5952333A, “Quinazoline derivative” (Zeneca Limited, priority 1995, dated 1999).
